Results reported in paper PMC6941357, “An in vitro toolbox to accelerate anti-malarial drug discovery and development” (Malaria Journal, 2020).
Converted amounts (≈) assume the structure as drawn. “And” between values parts separate entries of the source, which are not always exact repeats. Equal entries are not always repeated. Where two headings read alike, the source gives them in different places. Marks after values point to notes of the source that are not given here.

Assays:
[1] = Solubility in biorelevant media; settings: for solubility at 1 h / Solubility FaSSGF (1 h) / Solubility FaSSIF-V2 (5–6 h) / Solubility FeSSIF-V2 (5–6 h) / Solubility PBS7.4 (5–6 h): 37 °C; for solubility at 1 h: fassgf or other biorelevant; for solubility at 1 h / solubility: thermodynamic from solid
Experimental: Solubility of each active pharmaceutical ingredient was evaluated at 37 °C in pH 7.4 phosphate buffered saline (prepared as described for the partitioning experiments), fasted (FaSSIF-V2) and fed (FeSSIF-V2) state simulated intestinal fluids and fasted state simulated gastric fluid (FaSSGF) as described by Jantratid et al.. […] Samples were vortexed and placed in a 37 °C incubator on an orbital mixer (IKA® VXR basic Vibrax® orbital mixer) set at 600 rpm. Sampling times were 1 h for FaSSGF or 5–6 h for FaSSIF-V2, FeSSIF-V2, and PBS. These times were used to reflect the maximal likely residence times within the stomach and small intestine, respectively. Sampling was carried out by centrifuging each sample at 10,000 rpm for 3 min, transferring 300 µL aliquots into fresh Eppendorf tubes and centrifuging these tubes again at 10,000 rpm for 3 min. Triplicate aliquots of the supernatant were then removed and diluted 1:2 in 50% aqueous methanol and then again in 50% aqueous acetonitrile to be within the analytical concentration range. Samples were analysed by LC–MS along with calibration standards (Additional file 1: Table S2).

[2] = Solubility limited absorbable dose (SLAD) calculation with predicted human jejunal Peff; settings: for solubility: FaSSIF; for An (absorption number): Peff × tres/R, minimum 1; for Permeability classification: based on ref 80 and control compounds; for Predicted human Peff: from Caco-2 Papp via calibration plot; for Ssi (estimated solubility in the small intestine): based on measured FaSSIF solubility
Description: Predicted Peff values were obtained from a calibration plot of literature Peff values vs measured Caco-2 Papp using either buffer or plasma as the transport medium (see Results section).

[3] = biological target: T1, Albumax medium (lipid rich bovine serum albumin) (Bos taurus, UniProt P02769); experiment: Binding in Albumax medium via ultracentrifugation; type: in vitro ADME; settings: for fraction unbound at […], 500 ng/mL: bovine, pH 7.4
T1 construct: purchased Gibco, Thermo Fisher Scientific
Outline: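 Unbound fraction (fu) taken as protein-free supernate concentration over total concentration after ultracentrifuging compound-spiked Albumax at 37 °C (5% or 10% CO2, or air). Analysis used 1:1 mixing with the opposite blank matrix against a common pH 7.4 calibration; degradation judged by start versus end Ctotal.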

[4] = Ionization constants by potentiometric titration; type: physicochemical; settings: basic pKa (B), mean ± SD, n = 3 titrations; for pKa: aqueous solution (DMSO stock diluted 1:10 with water), read-out: Measured pKa
Experimental: The autotitrator was controlled by Tiamo software (Version 1.3). pH measurements were conducted using a Metrohm LL Micro glass electrode which was calibrated on the day of use with calibration standards at pH 2, 4, 7 and 10. All reagents were standardized (directly or indirectly) against potassium hydrogen phthalate (Sigma-Aldrich, A.C.S. Acidimetric Standard). Titrant solutions were protected from carbon dioxide absorption by flushing with nitrogen before sealing or by the incorporation of a drying tube filled with self-indicating soda lime into the titration reaction vessel set-up.
Aliquots were introduced directly into the titration vessel and diluted 1:10 with water (typical final compound concentration of 0.5 mM).

CYP1A2 = biological target: T2, CYP1A2 (Homo sapiens, UniProt P05177); experiment: Cytochrome P450 inhibition in human liver microsomes
T2 sequence (P05177 1-516): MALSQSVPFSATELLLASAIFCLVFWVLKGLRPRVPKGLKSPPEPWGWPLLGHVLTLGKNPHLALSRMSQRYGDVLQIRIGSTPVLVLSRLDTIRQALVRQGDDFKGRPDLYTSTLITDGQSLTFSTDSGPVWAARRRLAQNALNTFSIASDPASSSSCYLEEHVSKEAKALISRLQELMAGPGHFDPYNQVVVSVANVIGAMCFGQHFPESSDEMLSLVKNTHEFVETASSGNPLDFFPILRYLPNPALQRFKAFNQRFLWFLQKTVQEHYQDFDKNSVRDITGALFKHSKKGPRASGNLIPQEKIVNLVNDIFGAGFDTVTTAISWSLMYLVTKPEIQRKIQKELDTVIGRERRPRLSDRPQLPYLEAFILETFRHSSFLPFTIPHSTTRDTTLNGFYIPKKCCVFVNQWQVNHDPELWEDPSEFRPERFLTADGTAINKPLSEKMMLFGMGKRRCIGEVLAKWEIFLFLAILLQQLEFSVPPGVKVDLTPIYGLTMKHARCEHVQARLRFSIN
Outline: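 Substrate-specific interaction method in human liver microsomes: the test compound's effect on production of a single isoform-dependent metabolite, quantified by LC–MS using diazepam as internal standard, is reported as percent inhibition of enzyme activity. Substrate Km was determined under the same incubation conditions.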

human liver microsomes = experiment: in vitro; settings: for HLM CLint: microsomes
Outline: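 Intrinsic clearance (µL/min/mg protein) came from the first-order substrate-depletion rate in human liver microsomes, using only the initial log-linear phase where kinetics deviated. Samples were quenched at 2, 5, 15, 30 and 60 min and quantified by LC–MS. Unbound CLint was obtained by dividing by microsomal fu.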

[5] = phosphate buffered saline pH 7.4, 37 °C, pH 7.4, aqueous buffer

T1 sequence (P02769 25-607): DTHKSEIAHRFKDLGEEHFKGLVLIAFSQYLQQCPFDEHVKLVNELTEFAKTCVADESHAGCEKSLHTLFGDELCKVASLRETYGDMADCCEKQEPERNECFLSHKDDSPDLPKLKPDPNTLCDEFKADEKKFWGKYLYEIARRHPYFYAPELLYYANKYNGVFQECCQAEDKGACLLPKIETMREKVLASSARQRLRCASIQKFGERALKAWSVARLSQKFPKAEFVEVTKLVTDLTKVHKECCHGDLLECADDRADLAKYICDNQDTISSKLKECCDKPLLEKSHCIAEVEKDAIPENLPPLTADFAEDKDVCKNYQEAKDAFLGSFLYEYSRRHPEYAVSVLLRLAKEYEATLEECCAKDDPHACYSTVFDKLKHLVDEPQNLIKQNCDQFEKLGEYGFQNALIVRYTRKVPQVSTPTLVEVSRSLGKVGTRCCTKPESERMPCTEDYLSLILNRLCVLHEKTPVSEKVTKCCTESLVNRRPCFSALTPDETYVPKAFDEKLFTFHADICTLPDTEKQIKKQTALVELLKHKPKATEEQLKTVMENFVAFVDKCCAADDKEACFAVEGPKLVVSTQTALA

SMILES | solubility at 1 h ([1]; FaSSGF) | solubility ([1]; FaSSIF-V2, 37 °C, fassif) | solubility ([1]; FeSSIF-V2, 37 °C, fessif) | solubility [1, 5] | An (absorption number) [2] | SLAD ([2]; Ssi × V (500 mL) × Mp) | Permeability classification [2] | Predicted human Peff [2] | IC50 (CYP1A2) | CYP1A2 % inhibition at max conc (CYP1A2; microsomes) | Solubility FaSSGF (1 h) [1] | Solubility FaSSIF-V2 (5–6 h) [1] | Solubility FeSSIF-V2 (5–6 h) [1] | Solubility PBS7.4 (5–6 h) [1] | IC50 (CYP1A2; microsomes) | Unbound CLint (human liver microsomes) | HLM CLint (human liver microsomes; human) | SLAD [2] | Ssi (estimated solubility in the small intestine) [2] | Fraction unbound, Albumax [3] | also measured
C[C@H]1[C@H](N2CCS(=O)(=O)CC2)O[C@@H]2O[C@@]3(C)CC[C@H]4[C@H](C)CC[C@@H]1[C@@]24OO3 [Artemisone] | 89.1 µg/mL and 222 µM | 115 µg/mL and 286 µM | 278 µg/mL and 692 µM | 86.1 µg/mL and 214 µM | 6.0 | 345 mg | High (> 85% absorption (high)) | 5.0 10^−4 cm/s |  |  |  |  |  |  |  |  |  |  |  |  | solubility [2]: 115 µg/mL (≈ 286 µM); fraction unbound at […], 500 ng/mL ([3]; isolated protein): 0.46 ± 0.013; Measured pKa [4]: no ionizations could be detected
CC1(C)N=C(N)N=C(N)N1c1ccc(Cl)cc1 [Cycloguanil] | > 2000 µg/mL and > 7950 µM | > 2000 µg/mL and > 7950 µM | 533 µg/mL and 2120 µM | > 2000 µg/mL and > 7950 µM |  |  |  |  | > 20 µM | nmi |  |  |  |  |  |  |  |  |  |  | fraction unbound at […], 500 ng/mL ([3]; isolated protein): 0.88 ± 0.057; pKa [4]: 11.4 ± 0.3
Cc1cc(Nc2ccc(S(F)(F)(F)(F)F)cc2)n2nc(C(C)(F)F)nc2n1 [DSM265] |  |  |  | 2.04 µg/mL and 4.9 µM | 5.7 | 14 mg | High (> 85% absorption (high)) | 4.8 10^−4 cm/s |  |  |  |  |  |  |  |  |  |  |  |  | Measured pKa [4]: no ionizations could be detected
CCNCc1cc(Nc2ccnc3cc(Cl)ccc23)ccc1O [Desethylamodiaquine] |  |  |  |  |  |  |  |  | > 18 µM | nmi |  |  |  |  |  |  |  |  |  |  | fraction unbound at […], 500 ng/mL ([3]; isolated protein): 0.75 ± 0.074; pKa [4]: 8.5 ± 0.05
COc1cc2[nH]c(C)c(-c3ccc(Oc4ccc(OC(F)(F)F)cc4)cc3)c(=O)c2cc1Cl [ELQ300] |  |  |  |  | 13 |  | High (> 85% absorption (high)) | 11 10^−4 cm/s |  | nmi | 0.929 µg/mL and 1.95 µM | 0.524 µg/mL and 1.10 µM | 0.065 µg/mL and 0.137 µM | 0.102 µg/mL and 0.214 µM | > 20 µM | < 3500^c µL/min/mg | < 7^b µL/min/mg | 3 mg | 0.520 µg/mL |  | 
CN(C)C[c-]1cccc1CNc1ccnc2cc(Cl)ccc12.[Fe+2].c1cc[cH-]c1 (stereo not drawn) [Ferroquine] |  |  |  |  | 2.7 | 426 mg | High (> 85% absorption (high)) | 2.2 10^−4 cm/s |  | nmi | > 2000 µg/mL and > 4600 µM | 320 µg/mL and 738 µM | > 2000 µg/mL and > 4600 µM | 4.9 µg/mL and 11 µM | > 20 µM | 108 µL/min/mg | 29.2 µL/min/mg |  | 320 µg/mL | 0.52 ± 0.031 | 
CCCCN(CCCC)CCC(O)c1cc2c(Cl)cc(Cl)cc2c2cc(C(F)(F)F)ccc12 (stereo not drawn) [Halofantrine] | 12.7 µg/mL and 25.4 µM | 69.9 µg/mL and 140 µM | 739 µg/mL and 1480 µM | < 0.05 µg/mL and < 0.1 µM | 13 | 466 mg | High (> 85% absorption (high)) | 11 10^−4 cm/s | > 20 µM |  |  |  |  |  |  |  |  |  |  |  | CYP1A2 % inhibition at max conc (CYP1A2; human liver microsomes, at max conc, nmi = no measurable inhibition): nmi; Unbound CLint (human liver microsomes; human, 1 µM, pH 7.4): 13,500 µL/min/mg; solubility [2]: 69.9 µg/mL (≈ 140 µM); fraction unbound at […], 500 ng/mL ([3]; Albumax medium): 0.008 ± 0.001
O=C(NCCN1CCCC1)c1cc(-c2ccc(CN3CCOCC3)cc2)nc2ccc(F)cc12 [M5717] |  |  |  |  | 4.0 |  | High (> 85% absorption (high)) | 3.4 10^−4 cm/s |  | nmi |  |  |  |  | > 20 µM | 22.2 µL/min/mg | 11.1 µL/min/mg | > 6050 mg | > 3000 µg/mL | 0.55 ± 0.041 | solubility in all media tested ([1]; FaSSGF, FaSSIF-V2, FeSSIF-V2, PBS pH 7.4): > 2 mg/mL
COc1cc(N[C@H](C)CCCN)c2nccc(C)c2c1Oc1ccc(Cl)c(Cl)c1 [NPC1161B] |  |  |  |  |  |  |  |  |  |  | 1520 µg/mL and 3500 µM | 19.9 µg/mL and 45.8 µM | > 2000 µg/mL and > 4600 µM | 5.44 µg/mL and 12.5 µM | 6.5 µM |  | < 7^b µL/min/mg |  |  | 0.035 ± 0.0020 | Ki (CYP1A2; microsomes): 3.8 µM
CC(C)(C)NCc1cc(Nc2ccnc3cc(Cl)ccc23)c2c(c1O)CCCC2 [Naphthoquine] |  |  |  |  | 11 |  | High (> 85% absorption (high)) | 9.2 10^−4 cm/s |  | 33% | > 2000 µg/mL and > 4880 µM | 410 µg/mL and 1000 µM | 941 µg/mL and 2300 µM | 28.5 µg/mL and 69.5 µM | > 20 µM | 68.6 µL/min/mg | 14.4 µL/min/mg | 2250 mg | 410 µg/mL | 0.27 ± 0.035 | 
CS(=O)(=O)O.FC1CCN(CCOc2ccc(C3CCC4(CC3)OOC3(OO4)C4CC5CC(C4)CC3C5)cc2)CC1 (stereo not drawn) [TDD-E209] |  |  |  |  | 13 |  | High (> 85% absorption (high)) | 11 10^−4 cm/s |  |  | 211 µg/mL and 421 µM | 87.2 µg/mL and 174 µM | > 2000 µg/mL and > 4000 µM | 0.056 µg/mL and 0.112 µM |  | 85,000 µL/min/mg |  | 579 mg | 87.0 µg/mL | 0.0070 ± 0.0010 | 
COc1cc(C)c2c(Oc3cccc(C(F)(F)F)c3)c(OC)cc(NC(C)CCCN)c2n1 (stereo not drawn) [Tafenoquine] | > 2000 µg/mL and > 2800 µM | 15.8 µg/mL and 34.1 µM | 1310 µg/mL and 2820 µM | 18.3 µg/mL and 39.5 µM | 13 | 105 mg | High (> 85% absorption (high)) | 11 10^−4 cm/s | > 20 µM |  |  |  |  |  |  |  |  |  |  |  | FaSSGF solubility ([1]; FaSSGF): > 2000 µg/mL; inhibition at 20 µM (CYP1A2; human, microsomes, pH 7.4): 20%; solubility [2]: 15.8 µg/mL (≈ 34.1 µM); pKa [4]: 8.7 ± 0.09
